From US6534282B2, “Detection of hypertension using immunoreactive metabolic products” (priority 1999, dated 2003)

Columns and labels:
[1] = system: anti-14,15-DHET IgG; assay: Specificity of the 14,15-DHET competitive ELISA (eicosanoid panel); assay type: binding, goat; conditions: for cross-reaction with anti-14,15-DHET (in words) / cross-reaction with anti-14,15-DHET: 14,15-DHET ELISA; for cross-reactivity relative to 14,15-DHET: competition with 14,15-DHET for anti-14,15-DHET IgG in ELISA
Method: Synthetic 14, 15- or 8,9-DHETs were coupled to KLH using dicyclohexylcarbodiimide as previously described (25). The conjugate was used to immunize a goat and antibody titers were determined by ELISA using DHET-conjugated bovine serum albumin (BSA).
High-binding microplates were coated with protein G-purified IgG suspended in 1M carbonate, pH 9.0, (1 μg/well; 200 μl/well final volume) and then covered with paraflim. After overnight incubation at room temperature, the wells were gently washed five times with tris buffered saline (TBS), pH 7.5, containing 0.1% tween. Non-specific sites were blocked by the addition of 0.2 ml of 5% (w/v) nonfat dry milk in TBS. After two hours of incubation at room temperature, they were washed three times with TBS-tween. One μg/well of purified IgG was sufficient for quantitation of 0.5 to 100 pg/well of 14,15- or 8,9-DHETs. Samples and standards (150 μL) were added and the plates incubated for 20 minutes, after which 15 ng of the DHET-HRP conjugate was added in 50 μL of TBS. Following incubation for one hour to permit competitive binding to bound antibody, unbound material was removed by thorough washing of the wells with TBS-tween, and 150 μL of a colorimetric substrate for HRP [3,3′,5,5′ tetramethylbenzidine (TMB) and hydrogen peroxide] (Sigma Co.) was added. The plate is then incubated for 20 minutes, the reaction stopped by addition of 75 μL of 1N H2SO4, and the absorbance at 450 nm was determined using a microtiter plate reader. Under these assay conditions, the amount of color in a well is inversely proportional to the initial concentration of the sample or a standard ligand.
The specificity of the 14,15-DHET ELISA was investigated using authentic DHET and a panel of eicosanoids (Table 5) which, based on their structure, might be anticipated to compete with 14,15-DHET for binding to antibodies against 14,15-DHET. […] There was a slight cross-reaction with 8,9- and 11,12-DHET (3.3% for both).
A listing of the panel of eicosanoids used to analyze the specificity of the 14,15-DHET ELISA. These eicosanoids were selected based on the similarity of their structure to 14,15-DHET, as being anticipated to potentially compete with 14,15-DHET for binding to anti-14,15-DHET and thus interfere with such assays.

[2] = system: AA epoxygenase; assay: AA oxygenase activity assay of hepatic microsomes using 14C AA, from treated rats; assay type: in vivo, rat; conditions: hepatic microsomes of rats treated i.p. 10 mg/kg/d for 4 days; incubation 10 min
Method: (§1) Male and female Sprague-Dawley (SD) rats (160-200 g) were purchased from Charles River Laboratories (Wilmington, Mass.) and housed in a controlled environment and fed standard laboratory chow for at least 3 days before use.
Microsomes were prepared from rat livers and kidneys as described previously (27,28). Microsomes were stored at −80° C. in 50 mM Tris acetate buffer, pH 7.4, containing 1 mM EDTA and 20% glycerol until use.
After incubation of the microsomes (1 mg protein/ml, final concentration), 0.05 M Tris-HCl buffer, pH 7.5, containing 0.15 m KCl, 10 mM MgC12, 8 mM sodium isocitrate and 0.5 IU of isocitrate dehydrogenase and, incubated with ^14C AA (1 μCi/μmol, 100 μM, final concentration) in the presence of 1 mM NADPH at 30° C. The reaction products were taken at five and ten minutes and extracted into ethyl ether containing 0.05% acetic acid. The AA oxygenase metabolites were separated by HPLC and quantitated by a radiomatic Flo-One β-detector.
The reaction products were taken at 5 and 10 min. and extracted into ethyl ether containing 0.05% acetic acid). The AA oxygenase metabolites were separated by HPLC and quantitated by a radiomatic Flo-One B-detector.

[3] = system: CYP2C23; assay: Western blot of hepatic microsomes for CYP2C23; assay type: in vivo, rat; conditions: after 4 days of treatment, 10 mg/kg/day i.p., FIG. 4
Method: as §1
SDS-PAGE was carried out on 10% acrylamide gel. The separated proteins were electroblotted onto cellulose membrane and Western blot analyses were carried out using alkaline phosphatase system as previously described (29). Visualization of P450 bands was accomplished by incubation with a mixture of 5-bromo4-chloro-3-indolylphosphatate p-toluidine and nitrobluetetrazolium.

[4] = system: AA epoxygenase; conditions: rats; cited from earlier work

Row | cross-reactivity relative to 14,15-DHET [1] | Structure (SMILES) | cross-reaction with anti-14,15-DHET (in words) [1] | other results
1 | 0.20% | CCCCC[C@H](O)/C=C/C=C\C/C=C\C=C\[C@@H](O)CCCC(=O)O [5(s)15(S)DiHETE] | did not cross-react | 
2 | 0.02% | CCCCC/C=C\C/C=C\C/C=C\CC(O)C(O)CCCC(=O)O (stereo not shown) [5,6-DHET] | did not cross-react | 
3 | 0.02% | CCCCC/C=C\C/C=C\C/C=C\CC1OC1CCCC(=O)O (stereo not shown) [5,6-EET] | did not cross-react | 
4 | <0.01% | CCCCC[C@H](O)/C=C/[C@@H]1[C@@H](CC(=O)CCCCC(=O)O)[C@@H](O)C[C@H]1O [6-keto-PGF1α] | did not cross-react | 
5 | 3.30% | CCCCCC=CCC=CCC(O)C(O)CC=CCCCC(=O)O (stereo not shown) [8,9-DHET, 8,9-dihydroxyeicosatrienoic acid] |  | cross-reaction with anti-14,15-DHET [1]: 3.3%
6 | 0.40% | CCCCC/C=C\C/C=C\CC1OC1C/C=C\CCCC(=O)O (stereo not shown) [8,9-EET] | did not cross-react | 
7 | 3.30% | CCCCC/C=C\CC(O)C(O)C/C=C\C/C=C\CCCC(=O)O (stereo not shown) [11,12-DHET] |  | cross-reaction with anti-14,15-DHET [1]: 3.3%
8 | 0.05% | CCCCC/C=C\C[C@H]1O[C@H]1C/C=C\C/C=C\CCCC(=O)O [11,12-EET] | did not cross-react | 
9 | 100.00% | CCCCCC(O)C(O)CC=CCC=CCC=CCCCC(=O)O (stereo not shown) [14,15-DHET, 14,15-dihydroxyeicosatrienoic acid] |  | 
10 | 1.50% | CCCCCC1OC1C/C=C\C/C=C\C/C=C\CCCC(=O)O (stereo not shown) [14,15-EET] | did not cross-react | 
11 | 1.00% | CCCCC[C@H](O)/C=C/C=C\C/C=C\C/C=C\CCCC(=O)O [15(S)HETE] | did not cross-react | 
12 |  | C[C@@H]1C[C@H]2[C@@H]3CCC4=CC(=O)C=C[C@]4(C)[C@@]3(F)[C@@H](O)C[C@]2(C)[C@@]1(O)C(=O)CO [DEX, dexamethasone] |  | 11,12-EET formed [2]: 73 ng EET formed/mg protein; 14,15-EET formed [2]: 97 ng EET formed/mg protein; hepatic CYP2C23 protein level [3]: decreased dramatically
13 | <0.01% | CCCCC[C@H](O)/C=C/[C@H]1[C@H](O)CC(=O)[C@@H]1C/C=C\CCCC(=O)O [PGE2] | did not cross-react | 
14 | <0.01% | CCCCC[C@H](O)/C=C/[C@@H]1[C@@H](C/C=C\CCCC(=O)O)[C@@H](O)C[C@H]1O [PGF2α] | did not cross-react | 
15 | 0.02% | CCCCC[C@H](O)/C=C/[C@H]1OC(O)C[C@H](O)[C@@H]1C/C=C\CCCC(=O)O (stereo partly shown) [Thromboxane B2] | did not cross-react | 
16 | 0.05% | CCCCC/C=C\C/C=C\C/C=C\C/C=C\CCCC(=O)O [arachidonic acid] | did not cross-react | 
17 |  | Clc1ccccc1C(c1ccccc1)(c1ccccc1)n1ccnc1 [clotrimazole] |  | blood pressure effect [4]: induced salt-sensitive and clotrimazoledependent hypertension; urinary excretion of Na+, EETs and DHETs [4]: decreased
